Measured values as given in patent US20060167098A1, “Method for the treatment of diseases linked to an accumulation of triglycerides and cholesterol” (Institut National De La Sante ET De LA Recherche Medicale …, priority 2003, published 2006).

Tests used:
Assay type in all cases: in vivo
[1] = Body fat mass by DEXA in genetically obese ob/ob mice; conditions: 100 mg/kg/day
Source text: Six to 8 weeks old male (Crl:CD-1(ICR)BR) Swiss mice, and six to ten weeks old male RjOrl Swiss mice (i.e. lean mice) weighing 28 and 32 grams were purchased from Dépré (Saint Doulchard, France). Ten to 12 weeks old ob/ob male (C57BL/6-ob) mice (i.e. obese mice), weighing 40 to 44 grams were purchased from Janvier (Le-Genest-St-Isle, France). In one experiment, younger ob/ob mice (5-6 weeks old) weighing 25-26 grams were also studied. In genetically obese ob/ob mice, a mutation on the gene of leptin prevents the normal production of this hormone, thus increasing appetite and decreasing energy consumption (Friedman J. M., Halaas J. L., 1998, Nature 395 : 763-770). […] The animals were acclimatized for one to two weeks before the start of experiments.
D,L-β-Aminoisobutyric acid (BAIBA) was purchased from Sigma-Aldrich. BAIBA has been administered in drinking water at the dose of 100 mg/kg/day or 500 mg/kg/day for 6 weeks, 2 months or 4 months according to the experiments.
The in vivo determination of body fat mass in anesthetized mice has been performed by “DEXA” (Dual Energy X-ray Absorptiometry) (Pietriobelli A., Formica C., Wang Z., Heymsfield S. B., 1996, Am. J. Physiol. 271 (Endocrinol. Metab. 34): E941-E951)). […] It is noteworthy that DEXA also gives for each investigated animal its lean mass that is the total amount of water and proteins (in grams) in the body (excluding the head). Therefore, for a given animal, DEXA allows the determination of the percentage of body fat which is its body fat mass divided by the sum of its body lean and fat masses (fat mass/(lean mass+fat mass)). The “DEXA” apparatus was a Piximus® from Lunar Corporation (Madison, Wis.). Mice were anesthetized thanks to a mixture of xylazine and ketamine.
Procedure 1: the animals were not fasted before DEXA investigations. The first DEXA measurement was performed one day before the beginning of the investigation (T0). Afterwards, DEXA measurements have been respectively performed two weeks (T2) and six weeks (T6) after the beginning of the treatment. […]

[2] = Liver triglycerides in ob/ob mice, 6 weeks; conditions: 100 mg/kg/day 6 weeks, fasted 48 h
Experimental: Total lipids and triglycerides in the liver of animals were assessed according to a procedure partially reported by (Letteron P., Fromenty B., Terris B., Degott C., Pessayre D., 1996, J. Hepatol. 24 : 200-208). Briefly, after killing of the animals, livers were removed and homogenized in sterile water. Hepatic lipids were thus extracted by a mixture of chloroform and methanol (2/1; v/v). After removal of the aqueous phase, the organic phase (chloroform containing the lipids) was evaporated and the amount of lipids was determined by gravimetry. Lipids were subsequently resuspended in isopropanol (final concentration, ca. 10 mg/mL). After removal of the phopholipids by using aluminum hydroxide hydrate, triglycerides were determined colorimetrically by using periodate and the Nash's reagent (containing acetylacetone, ammonium acetate and isopropanol). The reaction generates diacetyldihydrolutidine which is assayed by spectrophotometry (λ=410 nm).
Liver triglycerides were assessed in ob/ob mice fed with a standard diet and receiving or not of 100 mg/kg/day of β-aminoisobutyric acid (BAIBA) in the drinking water during 6 weeks. Mice were 10 weeks old at the beginning of the experiment. These animals (7 controls and 10 treated with BAIBA) were different from those used for the determination of body fat by DEXA in the fed state (see above, paragraph I-d). At the end of the 6 weeks of treatment mice were submitted to a 48-hour period of fast At the end of this fasting period mice were killed for assessment of liver triglycerides. […] Indeed, liver triglycerides were reduced by 16 and 12%, respectively when the values were expressed as mg/whole liver or as mg/gram of lipids.

[3] = Plasma lipids in Swiss mice fed with a western diet, 6 weeks, 48-hour fast; conditions: 100 mg/kg/day
Experimental: Plasma lipids (triglycerides, total cholesterol, phospholipids) were measured on an automatic analyser (Hitachi 717®). The commercial kits used to assess triglycerides, total cholesterol and phospholipids on this analyser were all from bioMérieux (references 61238, 61219 and 61491, respectively). Plasma non esterified fatty acids (NEFA) were assessed by using a commercial kit (Wako, reference 994-75409). Hepatic and plasma lipids were performed at the end of six weeks of treatment in animals that have been fasted for 48 hours. Triglycerides and HDL-cholesterol were also assessed after 2 months (in the fed state) or after 4 months of treatment (after an overnight fast).
Plasma lipids were assessed in mice fed with the western diet (WD) and receiving or not of 100 mg/kg/day of β-aminoisobutyric acid (BAIBA) in the drinking water (8 mice in each group). For comparison, the experiment also included a group of mice (n=8) fed with a standard diet (SD). These animals were those used for the determination of body fat by DEXA and liver lipids (see above, paragraph I-c and II-a, respectively). After the last DEXA measurement (after 6 weeks of treatment), mice were allowed to recover from the anaesthesia for ca. 2 days and were then submitted to a 48-hour period of fast. At the end of this fasting period, a sample of blood was collected (from the retroorbital sinus) […] and plasma triglycerides, phospholipids, total cholesterol and non-esterified fatty acids (NEFA) were subsequently determined. After 6 weeks, the western diet was responsible for an increase of all plasma lipids, but the most affected lipids were triglycerides.

[4] = Plasma glucose in lean mice, standard diet, 6 weeks, not fasted; conditions: 100 mg/kg/day 6 weeks
Experimental: Plasma glucose was measured on an automatic analyser (Synchron LX20 from Beckman Coulter) with a commercial kit (kit n°472500 from Beckman).
In a second series of experiments plasma glucose was assessed in lean mice fed with the standard diet and receiving (6 mice) or not (6 mice) 100 mg/kg/day of β-aminoisobutyric acid in the drinking water for 6 weeks, but at the end of the experiment, mice were not fasted. […] Indeed, plasma glucose was 11.5±0.8 and 10.7±0.4 mmol/L, respectively in control and treated mice.

For `CC(CN)C(=O)O` (racemic) [BAIBA, D,L-β-Aminoisobutyric acid], the “gain of body fat” value ([1]; 10-12 weeks old ob/ob mice, first two weeks) was 4.65±0.35 grams, the “reduction of body fat” value ([1]; 10-12 weeks old ob/ob mice, first two weeks, not significant) was 11% and the “gain of body fat” value ([1]; ob/ob mice, T0-T6) was 7.30±0.61 grams. The “reduction of liver triglycerides (values as mg/gram of lipids)” value [2] was 12%, the “reduction of liver triglycerides (values as mg/whole liver)” value [2] was 16% and the liver triglycerides ([2]; p<0.01) was 625±14 mg/g of lipids. The “decrease of plasma NEFA” value [3] was 16%, the “decrease of total cholesterol” value [3] was 4% and the “plasma NEFA” value [3] was 0.88 ± 0.06 mmol/L. The plasma total cholesterol [3] was 6.71 ± 0.27 mmol/L, the plasma triglycerides [3] was 1.54 ± 0.13 mmol/L and the “reduction of plasma triglycerides” value ([3]; not significant) was 22%. The plasma glucose [4] was 10.7 ± 0.4 mmol/L.
